Reference: patent publication US10538555B2, “Macrocyclic inhibitors of the PD-1/PD-L1 and CD80(B7-1)/PD-L1 protein/protein interactions” (BRISTOL-MYERS SQUIBB COMPANY, priority 2014, dated 2020)
Where a SMILES comes first, the peptide text is derived from it. Bridges are numbered along the chain shown (N, C = ends). [ ]: non-standard residue; d: D form. NMeF = CN[C@@H](Cc1ccccc1)C(=O)O; dHyp = O=C(O)[C@H]1C[C@H](O)CN1; NMeNle = CCCC[C@H](NC)C(=O)O; dPip = O=C(O)[C@H]1CCCCN1; dThz = O=C(O)[C@H]1CSCN1; Dap = NC[C@H](N)C(=O)O; Sar = CNCC(=O)O

Molecular target: T1, Human PD-L1/PD-1 (Homo sapiens, UniProt Q9NZQ7)
T1 construct: TVMV protease cleavage site (C); made in house; host or cells: HEK293T cells
T1 sequence (Q9NZQ7 with tags, fused parts or gaps): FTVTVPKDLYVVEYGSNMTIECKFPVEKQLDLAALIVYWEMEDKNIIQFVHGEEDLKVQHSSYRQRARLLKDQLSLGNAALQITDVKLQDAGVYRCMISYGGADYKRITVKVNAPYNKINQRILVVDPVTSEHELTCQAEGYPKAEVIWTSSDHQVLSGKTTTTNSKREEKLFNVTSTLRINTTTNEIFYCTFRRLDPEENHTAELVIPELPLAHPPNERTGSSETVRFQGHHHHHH
Test: HTRF Human PD-L1/PD-1 binding assay (PD-1-Ig/PD-L1-His)
Conditions: PD-L1-His 10 nM, PD-1-Ig 20 nM; class symbol; read-out: HTRF Human PD-L1/PD-1 Binding Assay IC50 Range
Method in brief: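 Competition of macrocyclic peptides for PD-1/PD-L1 binding measured by HTRF in dPBS containing 0.1% BSA and 0.05% Tween-20. Compound and PD-L1-His (10 nM final) incubated 15 min before PD-1-Ig (20 nM final) and a further 15 min.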

Row | Compound | IC50 [µM]
1 | CCCC[C@H]1C(=O)N2CSC[C@@H]2C(=O)N[C@@H](CO)C(=O)N[C@@H](C(C)C)C(=O)N(C)[C@@H](Cc2ccccc2)C(=O)N[C@@H](Cc2ccc(O)cc2)C(=O)N2CCC[C@@H]2C(=O)N[C@@H](Cc2c[nH]c3ccccc23)C(=O)N[C@@H](Cc2ccc(O)cc2)C(=O)N[C@@H](CC(C)C)C(=O)N[C@H](C(=O)NCC(N)=O)CSCC(=O)N[C@@H](Cc2ccccc2)C(=O)N(C)[C@@H](Cc2ccccc2)C(=O)N1C [Example 10074] ({CH2CO}-F[NMeF][NMeNle][dThz]SV[NMeF]Y[dP]WYLCG-NH2; thioether N-13) | 0.01 to 0.0999
2 | CCCC[C@H]1C(=O)N2CSC[C@@H]2C(=O)N[C@@H](CN)C(=O)N[C@@H](C(C)C)C(=O)N(C)[C@@H](Cc2ccccc2)C(=O)N[C@@H](Cc2ccc(O)cc2)C(=O)N2CCC[C@@H]2C(=O)N[C@@H](Cc2c[nH]c3ccccc23)C(=O)N[C@@H](Cc2ccc(O)cc2)C(=O)N[C@@H](CC(C)C)C(=O)N[C@H](C(=O)NCC(N)=O)CSCC(=O)N[C@@H](Cc2ccccc2)C(=O)N(C)[C@@H](Cc2ccccc2)C(=O)N1C [Example 10075] ({CH2CO}-F[NMeF][NMeNle][dThz][Dap]V[NMeF]Y[dP]WYLCG-NH2; thioether N-13) | 0.01 to 0.0999
3 | CCCC[C@H]1C(=O)N2CCC[C@@H]2C(=O)N[C@@H](CC(=O)O)C(=O)N[C@@H](C)C(=O)N(C)[C@@H](Cc2ccccc2)C(=O)N[C@@H](Cc2ccc(O)cc2)C(=O)N2CCC[C@@H]2C(=O)N[C@@H](Cc2c[nH]c3ccccc23)C(=O)N[C@@H](Cc2ccc(O)cc2)C(=O)N[C@@H](CC(C)C)C(=O)N[C@H](C(=O)NCC(N)=O)CSCC(=O)N[C@@H](Cc2ccccc2)C(=O)N(C)[C@@H](Cc2ccccc2)C(=O)N1C [Example 10076] ({CH2CO}-F[NMeF][NMeNle][dP]DA[NMeF]Y[dP]WYLCG-NH2; thioether N-13) | 0.01 to 0.0999
4 | CCCC[C@H]1C(=O)N2CSC[C@@H]2C(=O)N[C@@H](CC(=O)O)C(=O)N[C@@H](C)C(=O)N(C)[C@@H](Cc2ccccc2)C(=O)N[C@@H](Cc2ccc(O)cc2)C(=O)N2CSC[C@@H]2C(=O)N[C@@H](Cc2c[nH]c3ccccc23)C(=O)N[C@@H](Cc2ccc(O)cc2)C(=O)N[C@@H](CC(C)C)C(=O)N[C@H](C(=O)NCC(N)=O)CSCC(=O)N[C@@H](Cc2ccccc2)C(=O)N(C)[C@@H](Cc2ccccc2)C(=O)N1C [Example 10078] ({CH2CO}-F[NMeF][NMeNle][dThz]DA[NMeF]Y[dThz]WYLCG-NH2; thioether N-13) | 0.01 to 0.0999
5 | CCCC[C@H]1C(=O)N2C[C@@H](O)C[C@@H]2C(=O)N[C@@H](CC(=O)O)C(=O)N[C@@H](C)C(=O)N(C)[C@@H](Cc2ccccc2)C(=O)N[C@@H](Cc2ccc(O)cc2)C(=O)N2C[C@@H](O)C[C@@H]2C(=O)N[C@@H](Cc2c[nH]c3ccccc23)C(=O)N[C@@H](Cc2ccc(O)cc2)C(=O)N[C@@H](CC(C)C)C(=O)N[C@H](C(=O)NCC(N)=O)CSCC(=O)N[C@@H](Cc2ccccc2)C(=O)N(C)[C@@H](Cc2ccccc2)C(=O)N1C [Example 10079] ({CH2CO}-F[NMeF][NMeNle][dHyp]DA[NMeF]Y[dHyp]WYLCG-NH2; thioether N-13) | 0.01 to 0.0999
6 | CCCC[C@H]1C(=O)N(C)CC(=O)N[C@@H](CC(=O)O)C(=O)N[C@@H](C)C(=O)N(C)[C@@H](Cc2ccccc2)C(=O)N[C@@H](Cc2ccc(O)cc2)C(=O)N2CCC[C@@H]2C(=O)N[C@@H](Cc2c[nH]c3ccccc23)C(=O)N[C@@H](Cc2ccc(O)cc2)C(=O)N[C@@H](CC(C)C)C(=O)N[C@H](C(=O)NCC(N)=O)CSCC(=O)N[C@@H](Cc2ccccc2)C(=O)N(C)[C@@H](Cc2ccccc2)C(=O)N1C [Example 10080] ({CH2CO}-F[NMeF][NMeNle][Sar]DA[NMeF]Y[dP]WYLCG-NH2; thioether N-13) | 0.01 to 0.0999
7 | CCCC[C@H]1C(=O)N(C)CC(=O)N[C@@H](CC(=O)O)C(=O)N[C@@H](C)C(=O)N(C)[C@@H](Cc2ccccc2)C(=O)N[C@@H](Cc2ccc(O)cc2)C(=O)N2CCCC[C@@H]2C(=O)N[C@@H](Cc2c[nH]c3ccccc23)C(=O)N[C@@H](Cc2ccc(O)cc2)C(=O)N[C@@H](CC(C)C)C(=O)N[C@H](C(=O)NCC(N)=O)CSCC(=O)N[C@@H](Cc2ccccc2)C(=O)N(C)[C@@H](Cc2ccccc2)C(=O)N1C [Example 10081] ({CH2CO}-F[NMeF][NMeNle][Sar]DA[NMeF]Y[dPip]WYLCG-NH2; thioether N-13) | 0.01 to 0.0999
8 | CCCC[C@H]1C(=O)N(C)CC(=O)N[C@@H](CC(=O)O)C(=O)N[C@@H](C)C(=O)N(C)[C@@H](Cc2ccccc2)C(=O)N[C@@H](Cc2ccc(O)cc2)C(=O)N2CSC[C@@H]2C(=O)N[C@@H](Cc2c[nH]c3ccccc23)C(=O)N[C@@H](Cc2ccc(O)cc2)C(=O)N[C@@H](CC(C)C)C(=O)N[C@H](C(=O)NCC(N)=O)CSCC(=O)N[C@@H](Cc2ccccc2)C(=O)N(C)[C@@H](Cc2ccccc2)C(=O)N1C [Example 10082] ({CH2CO}-F[NMeF][NMeNle][Sar]DA[NMeF]Y[dThz]WYLCG-NH2; thioether N-13) | 0.1 to 0.99

More lines, now with the values ahead:

Row | IC50 [µM] | Compound
9 | 0.001 to 0.0099 | CCCC[C@H]1C(=O)N2CCC[C@@H]2C(=O)N[C@@H](CO)C(=O)N[C@@H](C(C)C)C(=O)N(C)[C@@H](Cc2ccccc2)C(=O)N[C@@H](Cc2ccc(O)cc2)C(=O)N2CCC[C@@H]2C(=O)N[C@@H](Cc2c[nH]c3ccccc23)C(=O)N[C@@H](Cc2ccc(O)cc2)C(=O)N[C@@H](CC(C)C)C(=O)N[C@H](C(=O)NCC(N)=O)CSCC(=O)N[C@@H](Cc2ccccc2)C(=O)N(C)[C@@H](Cc2ccccc2)C(=O)N1C [Example 10067] ({CH2CO}-F[NMeF][NMeNle][dP]SV[NMeF]Y[dP]WYLCG-NH2; thioether N-13)
10 | 0.001 to 0.0099 | CCCC[C@H]1C(=O)N2CCC[C@@H]2C(=O)N[C@@H](CC(=O)O)C(=O)N[C@@H](C(C)C)C(=O)N(C)[C@@H](Cc2ccccc2)C(=O)N[C@@H](Cc2ccc(O)cc2)C(=O)N2CSC[C@@H]2C(=O)N[C@@H](Cc2c[nH]c3ccccc23)C(=O)N[C@@H](Cc2ccc(O)cc2)C(=O)N[C@@H](CC(C)C)C(=O)N[C@H](C(=O)NCC(N)=O)CSCC(=O)N[C@@H](Cc2ccccc2)C(=O)N(C)[C@@H](Cc2ccccc2)C(=O)N1C [Example 10068] ({CH2CO}-F[NMeF][NMeNle][dP]DV[NMeF]Y[dThz]WYLCG-NH2; thioether N-13)
11 | 0.01 to 0.0999 | CCCC[C@H]1C(=O)N2CCC[C@@H]2C(=O)N[C@@H](CO)C(=O)N[C@@H](C(C)C)C(=O)N(C)[C@@H](Cc2ccccc2)C(=O)N[C@@H](Cc2ccc(O)cc2)C(=O)N2CSC[C@@H]2C(=O)N[C@@H](Cc2c[nH]c3ccccc23)C(=O)N[C@@H](Cc2ccc(O)cc2)C(=O)N[C@@H](CC(C)C)C(=O)N[C@H](C(=O)NCC(N)=O)CSCC(=O)N[C@@H](Cc2ccccc2)C(=O)N(C)[C@@H](Cc2ccccc2)C(=O)N1C [Example 10070] ({CH2CO}-F[NMeF][NMeNle][dP]SV[NMeF]Y[dThz]WYLCG-NH2; thioether N-13)
12 | 0.01 to 0.0999 | CCCC[C@H]1C(=O)N2CCC[C@@H]2C(=O)N[C@@H](CN)C(=O)N[C@@H](C(C)C)C(=O)N(C)[C@@H](Cc2ccccc2)C(=O)N[C@@H](Cc2ccc(O)cc2)C(=O)N2CSC[C@@H]2C(=O)N[C@@H](Cc2c[nH]c3ccccc23)C(=O)N[C@@H](Cc2ccc(O)cc2)C(=O)N[C@@H](CC(C)C)C(=O)N[C@H](C(=O)NCC(N)=O)CSCC(=O)N[C@@H](Cc2ccccc2)C(=O)N(C)[C@@H](Cc2ccccc2)C(=O)N1C [Example 10071] ({CH2CO}-F[NMeF][NMeNle][dP][Dap]V[NMeF]Y[dThz]WYLCG-NH2; thioether N-13)
13 | 0.001 to 0.0099 | CCCC[C@H]1C(=O)N2CSC[C@@H]2C(=O)N[C@@H](CC(=O)O)C(=O)N[C@@H](C(C)C)C(=O)N(C)[C@@H](Cc2ccccc2)C(=O)N[C@@H](Cc2ccc(O)cc2)C(=O)N2CCC[C@@H]2C(=O)N[C@@H](Cc2c[nH]c3ccccc23)C(=O)N[C@@H](Cc2ccc(O)cc2)C(=O)N[C@@H](CC(C)C)C(=O)N[C@H](C(=O)NCC(N)=O)CSCC(=O)N[C@@H](Cc2ccccc2)C(=O)N(C)[C@@H](Cc2ccccc2)C(=O)N1C [Example 10072] ({CH2CO}-F[NMeF][NMeNle][dThz]DV[NMeF]Y[dP]WYLCG-NH2; thioether N-13)
14 | 0.01 to 0.0999 | CCCC[C@H]1C(=O)N2CSC[C@@H]2C(=O)N[C@@H](CC(N)=O)C(=O)N[C@@H](C(C)C)C(=O)N(C)[C@@H](Cc2ccccc2)C(=O)N[C@@H](Cc2ccc(O)cc2)C(=O)N2CCC[C@@H]2C(=O)N[C@@H](Cc2c[nH]c3ccccc23)C(=O)N[C@@H](Cc2ccc(O)cc2)C(=O)N[C@@H](CC(C)C)C(=O)N[C@H](C(=O)NCC(N)=O)CSCC(=O)N[C@@H](Cc2ccccc2)C(=O)N(C)[C@@H](Cc2ccccc2)C(=O)N1C [Example 10073] ({CH2CO}-F[NMeF][NMeNle][dThz]NV[NMeF]Y[dP]WYLCG-NH2; thioether N-13)

Same assay, conditions: PD-L1-His 10 nM, PD-1-Ig 20 nM; read-out: HTRF Human PD-L1/PD-1 Binding Assay IC50

Row | IC50 [µM] | Compound
15 | 0.0126 | CCCC[C@H]1C(=O)N2CCC[C@@H]2C(=O)N[C@@H](CC(N)=O)C(=O)N[C@@H](C(C)C)C(=O)N(C)[C@@H](Cc2ccccc2)C(=O)N[C@@H](Cc2ccc(O)cc2)C(=O)N2CSC[C@@H]2C(=O)N[C@@H](Cc2c[nH]c3ccccc23)C(=O)N[C@@H](Cc2ccc(O)cc2)C(=O)N[C@@H](CC(C)C)C(=O)N[C@H](C(=O)NCC(N)=O)CSCC(=O)N[C@@H](Cc2ccccc2)C(=O)N(C)[C@@H](Cc2ccccc2)C(=O)N1C [Example 10069] ({CH2CO}-F[NMeF][NMeNle][dP]NV[NMeF]Y[dThz]WYLCG-NH2; thioether N-13)
16 | 0.158 | CCCC[C@H]1C(=O)N(C)CC(=O)N[C@@H](CC(=O)O)C(=O)N[C@@H](C)C(=O)N(C)[C@@H](Cc2ccccc2)C(=O)N[C@@H](Cc2ccc(O)cc2)C(=O)N2C[C@@H](O)C[C@@H]2C(=O)N[C@@H](Cc2c[nH]c3ccccc23)C(=O)N[C@@H](Cc2ccc(O)cc2)C(=O)N[C@@H](CC(C)C)C(=O)N[C@H](C(=O)NCC(N)=O)CSCC(=O)N[C@@H](Cc2ccccc2)C(=O)N(C)[C@@H](Cc2ccccc2)C(=O)N1C [Example 10083] ({CH2CO}-F[NMeF][NMeNle][Sar]DA[NMeF]Y[dHyp]WYLCG-NH2; thioether N-13)
